Residues, ends and D or L forms follow the SMILES beside them.
Columns and labels:
[1] = cited from earlier work
[2] = molecular target: gp41 six-helix bundle formation between N46 and C34-biotin (Human immunodeficiency virus type 1 group M subtype B, UniProt P04578); assay type: biochemical, HIV-1; settings: triple combination of T-20, T-1249 and T-1144
Description: 6. Enzyme-linked Immunosorbent Assay (ELISA). […] The plate was then incubated for 30 min and added to horseradish peroxidase (HRP) labeled with streptavidin (SA-HRP) (ZYMED Laboratories). The plate was washed with the washing buffer (PBS containing 0.01% Tween 20) for 6 times to remove any unbound peptide. The substrate TMB was added sequentially. Absorbance at 450 nm (A450) was measured using an ELISA reader.

[3] = tested on: viruses that are resistant to T-20; settings: viruses resistant to T-20; cited from earlier work

gp41 six-helix bundle formation between N46 and C34-biotin, sequence (P04578 536-581): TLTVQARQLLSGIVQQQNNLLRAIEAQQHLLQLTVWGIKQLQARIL

Molecule | half-life in vivo ([1]; in the blood) | Dose reduction, six-helix bundle formation [2] | activity relative to T-20 [3] | pharmacokinetic properties improved ([1]; in vivo)
enfuvirtide | about 2 hours | – | – | –
CC[C@H](C)[C@H](NC(=O)[C@H](C)NC(=O)[C@H](CCCNC(=N)N)NC(=O)[C@H](CC(=O)O)NC(=O)[C@H](Cc1c[nH]c2ccccc12)NC(=O)[C@H](C)NC(=O)[C@H](CCC(=O)O)NC(=O)[C@H](Cc1c[nH]c2ccccc12)NC(=O)[C@@H](NC(=O)[C@@H](NC(C)=O)[C@@H](C)O)[C@@H](C)O)C(=O)N[C@@H](C)C(=O)N[C@@H](CCC(=O)O)C(=O)N[C@@H](Cc1ccc(O)cc1)C(=O)N[C@@H](C)C(=O)N[C@@H](C)C(=O)N[C@@H](CCCNC(=N)N)C(=O)N[C@H](C(=O)N[C@@H](CCC(=O)O)C(=O)N[C@@H](C)C(=O)N[C@@H](CC(C)C)C(=O)N[C@@H](CC(C)C)C(=O)N[C@@H](CCCNC(=N)N)C(=O)N[C@@H](C)C(=O)N[C@@H](CC(C)C)C(=O)N[C@@H](CCC(N)=O)C(=O)N[C@@H](CCC(=O)O)C(=O)N[C@@H](CCC(N)=O)C(=O)N[C@@H](CCC(N)=O)C(=O)N[C@@H](CCC(=O)O)C(=O)N[C@@H](CCCCN)C(=O)N[C@@H](CC(N)=O)C(=O)N[C@@H](CCC(=O)O)C(=O)N[C@@H](C)C(=O)N[C@@H](C)C(=O)N[C@@H](CC(C)C)C(=O)N[C@@H](CCCNC(=N)N)C(=O)N[C@@H](CCC(=O)O)C(=O)N[C@@H](CC(C)C)C(N)=O)[C@@H](C)CC [T-1144] (Ac-TTWEAWDRAIAEYAARIEALLRALQEQQEKNEAALREL-NH2; N-terminus and C-terminus assumed) | – | ~2 fold | thousands fold more active than T-20 | up to 100 fold
